Measured values taken from patent publication US6451576B1, “Sesquiterpene synthases from grand fir (Abies grandis), and methods of use” (Washington State University Research Foundation, priority 1998, dated 2002).

Target: T1, δ-selinene synthase (SEQ ID No:20) (Abies grandis, UniProt O64404)
T1 construct: made in house; host or cells: E. coli XL1-Blue/pGAG4 or E. coli BL21(DE3)/pSBAG4
T1 sequence (O64404 1-581): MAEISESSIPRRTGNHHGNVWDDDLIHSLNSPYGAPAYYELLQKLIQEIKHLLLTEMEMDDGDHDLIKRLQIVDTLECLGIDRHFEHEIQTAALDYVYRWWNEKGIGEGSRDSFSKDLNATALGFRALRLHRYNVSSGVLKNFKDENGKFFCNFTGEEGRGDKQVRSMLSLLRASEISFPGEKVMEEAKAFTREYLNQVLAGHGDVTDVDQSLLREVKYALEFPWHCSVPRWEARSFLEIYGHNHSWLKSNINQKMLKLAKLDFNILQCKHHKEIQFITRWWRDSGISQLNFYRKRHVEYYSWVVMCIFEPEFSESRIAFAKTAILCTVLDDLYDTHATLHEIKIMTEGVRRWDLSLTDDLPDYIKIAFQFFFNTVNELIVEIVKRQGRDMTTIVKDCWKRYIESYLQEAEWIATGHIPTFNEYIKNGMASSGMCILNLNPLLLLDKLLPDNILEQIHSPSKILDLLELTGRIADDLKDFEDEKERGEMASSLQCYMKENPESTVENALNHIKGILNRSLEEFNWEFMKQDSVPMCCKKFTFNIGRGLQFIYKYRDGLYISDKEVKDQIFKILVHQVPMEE
Assay: Kinetic parameters, metal ion requirement and substrate specificity of recombinant δ-selinene synthase
Assay type: biochemical
Method: The assay for recombinant sesquiterpene synthase (cyclase) activity was performed in 1 ml of buffer (extraction buffer without MnCl2 or the polymeric adsorbents) containing 3.5 μM [1-^3H]farnesyl diphosphate and the total protein extracted from a 5 ml bacterial culture to produce 10^5-10^6 dpm of product in 2 h at 31° C. The incubation mixture was overlaid with 1 ml pentane to trap volatile products. After incubation, the reaction mixture was extracted with pentane (3×1 ml) and the combined extract was passed through a MgSO4-silica gel column to provide the terpene hydrocarbon fractions as before. The columns were subsequently eluted with 3×1 ml of ether to collect any oxygenated products, and an aliquot of each fraction was taken for liquid scintillation counting to determine conversion rate. The monoterpene synthase and diterpene synthase activity assays were similarly performed as described in detail elsewhere (LaFever, R. E., et al., (1994) Arch. Biochem. Biophys. 313, 139-149; Bohlmann, J., et al., (1997) J. Biol. Chem. 272, 21784-21792; Lewinsohn, E., et al., (1991) Plant Physiol. 96, 38-43).
The substrate specificity and other kinetic. parameters of γ-humulene synthase (SEQ ID No:24) and δ-selinene synthase (SEQ ID No:20) were investigated in order to confirm the identification and classification of these enzymes. […] Neither of these sesquiterpene synthases requires K^+ or other monovalent cation for activity.
Substrate specificity of δ-selinene synthase (SEQ ID No:20) and γ-humulene synthase (SEQ ID No:24) was evaluated by comparing farnesyl diphosphate (C15) to geranyl diphosphate (C10) and geranylgeranyl diphosphate (C20) at saturation as precursors of the respective terpene olefins. […] The identities of the monoterpene products produced by the sesquiterpene synthases were determined by GLC-MS and are set forth in FIG. 4.

SMILES | olefin formation from substrate at saturation, compared with farnesyl diphosphate
CC(C)=CCC/C(C)=C/COP(=O)(O)OP(=O)(O)O [geranyl diphosphate, reference compound] | roughly half the rate
CC(C)=CCC/C(C)=C/CC/C(C)=C/CC/C(C)=C/COP(=O)(O)OP(=O)(O)O [geranylgeranyl diphosphate, reference compound] | failed to generate detectable olefinic products
